From ChEMBL document CHEMBL3991601, “The target landscape of clinical kinase drugs” (Science, 2017)
Activity calls are given as the source filed them.

What was measured:
[1] = target: Cyclin-dependent kinase 7 (Homo sapiens, UniProt P50613)
[2] = target: Mitogen-activated protein kinase 8 (Homo sapiens, UniProt P45983)
[3] = target: Elongation factor Tu, mitochondrial (Homo sapiens, UniProt P49411)
[4] = target: Protein-tyrosine kinase 6 (Homo sapiens, UniProt Q13882)
[5] = target: Mitogen-activated protein kinase 9 (Homo sapiens, UniProt P45984)
Sequence of Mitogen-activated protein kinase 9 (P45984 whole entry): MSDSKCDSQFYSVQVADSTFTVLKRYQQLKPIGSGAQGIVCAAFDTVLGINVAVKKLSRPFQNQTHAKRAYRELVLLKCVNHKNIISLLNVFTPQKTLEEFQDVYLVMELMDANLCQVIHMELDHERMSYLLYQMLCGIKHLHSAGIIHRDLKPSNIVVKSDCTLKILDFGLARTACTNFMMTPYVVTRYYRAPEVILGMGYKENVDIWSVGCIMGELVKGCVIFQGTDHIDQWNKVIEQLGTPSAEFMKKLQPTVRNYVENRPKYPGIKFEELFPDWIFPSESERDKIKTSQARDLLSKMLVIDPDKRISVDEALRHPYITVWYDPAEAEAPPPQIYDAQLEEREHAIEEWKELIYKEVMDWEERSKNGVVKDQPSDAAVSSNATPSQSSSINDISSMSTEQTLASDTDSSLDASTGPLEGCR

[6] = target: Myosin-10 (Homo sapiens, UniProt P35580)
[7] = target: Protein kinase C alpha type (Homo sapiens, UniProt P17252)
[8] = target: Epithelial discoidin domain-containing receptor 1 (Homo sapiens, UniProt Q08345)
Sequence of Epithelial discoidin domain-containing receptor 1 (Q08345 whole entry, the tested form may be a part): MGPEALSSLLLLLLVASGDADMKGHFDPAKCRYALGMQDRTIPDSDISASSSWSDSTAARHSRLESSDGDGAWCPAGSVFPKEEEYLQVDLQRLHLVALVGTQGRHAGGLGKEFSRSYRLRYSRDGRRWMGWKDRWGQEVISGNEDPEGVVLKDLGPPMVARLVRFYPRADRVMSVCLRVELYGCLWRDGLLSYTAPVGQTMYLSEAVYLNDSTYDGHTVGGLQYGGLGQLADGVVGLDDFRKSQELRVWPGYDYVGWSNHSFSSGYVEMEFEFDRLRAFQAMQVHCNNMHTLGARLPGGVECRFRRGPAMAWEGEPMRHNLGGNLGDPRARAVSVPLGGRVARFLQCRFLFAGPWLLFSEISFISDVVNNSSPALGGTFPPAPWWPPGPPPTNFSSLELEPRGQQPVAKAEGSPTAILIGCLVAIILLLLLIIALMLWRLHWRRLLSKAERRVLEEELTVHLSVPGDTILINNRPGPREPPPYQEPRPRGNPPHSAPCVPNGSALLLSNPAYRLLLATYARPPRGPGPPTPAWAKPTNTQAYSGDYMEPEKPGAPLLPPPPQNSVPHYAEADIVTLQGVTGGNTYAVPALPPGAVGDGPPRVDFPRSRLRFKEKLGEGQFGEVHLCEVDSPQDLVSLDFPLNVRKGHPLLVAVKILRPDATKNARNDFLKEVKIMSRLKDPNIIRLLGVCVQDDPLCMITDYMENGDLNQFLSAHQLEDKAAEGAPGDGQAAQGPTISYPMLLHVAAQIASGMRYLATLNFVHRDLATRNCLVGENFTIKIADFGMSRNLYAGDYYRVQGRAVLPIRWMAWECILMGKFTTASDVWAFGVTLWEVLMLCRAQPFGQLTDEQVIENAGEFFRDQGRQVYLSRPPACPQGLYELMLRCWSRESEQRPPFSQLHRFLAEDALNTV

[9] = target: T1, Glycogen phosphorylase, brain form (Homo sapiens, UniProt P11216)
T1 sequence (P11216 whole entry): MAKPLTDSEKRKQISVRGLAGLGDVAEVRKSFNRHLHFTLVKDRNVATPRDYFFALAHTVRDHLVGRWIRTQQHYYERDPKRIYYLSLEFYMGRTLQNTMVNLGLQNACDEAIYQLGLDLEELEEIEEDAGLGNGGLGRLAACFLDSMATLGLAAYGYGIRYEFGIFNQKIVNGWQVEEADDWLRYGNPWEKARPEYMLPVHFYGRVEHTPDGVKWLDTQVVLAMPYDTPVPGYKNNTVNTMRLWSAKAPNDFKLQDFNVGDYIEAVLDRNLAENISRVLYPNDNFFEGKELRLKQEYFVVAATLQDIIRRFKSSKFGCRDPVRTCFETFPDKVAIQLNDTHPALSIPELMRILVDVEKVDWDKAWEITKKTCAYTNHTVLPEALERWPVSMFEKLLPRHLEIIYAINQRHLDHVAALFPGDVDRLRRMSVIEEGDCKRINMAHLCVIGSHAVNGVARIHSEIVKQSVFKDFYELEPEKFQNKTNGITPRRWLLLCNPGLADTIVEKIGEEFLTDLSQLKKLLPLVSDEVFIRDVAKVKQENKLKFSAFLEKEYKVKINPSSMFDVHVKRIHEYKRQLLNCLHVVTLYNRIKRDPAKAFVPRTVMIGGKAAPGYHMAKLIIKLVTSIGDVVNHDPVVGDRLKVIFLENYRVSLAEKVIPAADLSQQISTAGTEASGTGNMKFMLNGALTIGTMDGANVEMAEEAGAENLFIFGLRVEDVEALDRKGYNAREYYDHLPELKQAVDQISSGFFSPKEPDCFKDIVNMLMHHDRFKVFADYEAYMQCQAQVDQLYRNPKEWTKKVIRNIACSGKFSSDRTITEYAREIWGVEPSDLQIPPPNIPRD

[10] = target: PAS domain-containing serine/threonine-protein kinase (Homo sapiens, UniProt Q96RG2)
Sequence of PAS domain-containing serine/threonine-protein kinase (Q96RG2 whole entry, the tested form may be a part): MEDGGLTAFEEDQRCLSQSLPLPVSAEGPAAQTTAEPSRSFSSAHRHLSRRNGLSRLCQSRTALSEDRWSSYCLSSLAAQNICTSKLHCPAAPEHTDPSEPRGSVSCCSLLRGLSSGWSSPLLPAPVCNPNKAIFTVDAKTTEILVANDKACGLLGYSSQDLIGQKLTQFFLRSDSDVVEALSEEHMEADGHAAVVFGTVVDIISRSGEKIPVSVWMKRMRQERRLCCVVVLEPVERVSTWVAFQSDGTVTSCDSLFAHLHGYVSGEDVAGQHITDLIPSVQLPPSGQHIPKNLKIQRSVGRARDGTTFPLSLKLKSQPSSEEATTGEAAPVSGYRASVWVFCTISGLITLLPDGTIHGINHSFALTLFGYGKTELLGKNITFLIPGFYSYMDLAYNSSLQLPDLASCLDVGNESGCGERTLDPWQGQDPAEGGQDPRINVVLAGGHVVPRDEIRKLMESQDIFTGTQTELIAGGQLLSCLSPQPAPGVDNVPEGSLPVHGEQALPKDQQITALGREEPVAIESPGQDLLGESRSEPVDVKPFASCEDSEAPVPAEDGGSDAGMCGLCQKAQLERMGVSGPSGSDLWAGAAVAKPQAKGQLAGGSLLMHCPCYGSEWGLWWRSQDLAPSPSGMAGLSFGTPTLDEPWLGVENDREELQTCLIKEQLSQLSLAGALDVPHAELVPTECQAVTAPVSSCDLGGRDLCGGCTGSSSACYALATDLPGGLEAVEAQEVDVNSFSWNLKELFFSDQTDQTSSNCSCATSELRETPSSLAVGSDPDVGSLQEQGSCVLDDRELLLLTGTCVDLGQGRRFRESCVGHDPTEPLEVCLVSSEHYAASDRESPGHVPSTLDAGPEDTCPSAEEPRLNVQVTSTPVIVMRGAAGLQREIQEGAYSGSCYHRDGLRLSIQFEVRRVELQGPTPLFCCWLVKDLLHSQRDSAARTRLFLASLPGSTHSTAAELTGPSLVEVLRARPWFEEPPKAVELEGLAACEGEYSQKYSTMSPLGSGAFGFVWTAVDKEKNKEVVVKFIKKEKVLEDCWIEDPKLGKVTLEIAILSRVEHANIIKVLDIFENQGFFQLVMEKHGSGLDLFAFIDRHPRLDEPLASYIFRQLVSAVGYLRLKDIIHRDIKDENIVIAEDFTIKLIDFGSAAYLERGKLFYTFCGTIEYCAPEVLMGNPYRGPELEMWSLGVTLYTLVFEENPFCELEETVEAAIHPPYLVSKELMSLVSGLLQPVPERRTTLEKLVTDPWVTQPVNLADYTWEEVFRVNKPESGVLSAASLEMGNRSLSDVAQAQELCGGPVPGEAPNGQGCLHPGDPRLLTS

[11] = target: GTP-binding protein 4 (Homo sapiens, UniProt Q9BZE4)
[12] = target: T2, DNA replication licensing factor MCM4 (Homo sapiens, UniProt P33991)
T2 sequence (P33991 whole entry): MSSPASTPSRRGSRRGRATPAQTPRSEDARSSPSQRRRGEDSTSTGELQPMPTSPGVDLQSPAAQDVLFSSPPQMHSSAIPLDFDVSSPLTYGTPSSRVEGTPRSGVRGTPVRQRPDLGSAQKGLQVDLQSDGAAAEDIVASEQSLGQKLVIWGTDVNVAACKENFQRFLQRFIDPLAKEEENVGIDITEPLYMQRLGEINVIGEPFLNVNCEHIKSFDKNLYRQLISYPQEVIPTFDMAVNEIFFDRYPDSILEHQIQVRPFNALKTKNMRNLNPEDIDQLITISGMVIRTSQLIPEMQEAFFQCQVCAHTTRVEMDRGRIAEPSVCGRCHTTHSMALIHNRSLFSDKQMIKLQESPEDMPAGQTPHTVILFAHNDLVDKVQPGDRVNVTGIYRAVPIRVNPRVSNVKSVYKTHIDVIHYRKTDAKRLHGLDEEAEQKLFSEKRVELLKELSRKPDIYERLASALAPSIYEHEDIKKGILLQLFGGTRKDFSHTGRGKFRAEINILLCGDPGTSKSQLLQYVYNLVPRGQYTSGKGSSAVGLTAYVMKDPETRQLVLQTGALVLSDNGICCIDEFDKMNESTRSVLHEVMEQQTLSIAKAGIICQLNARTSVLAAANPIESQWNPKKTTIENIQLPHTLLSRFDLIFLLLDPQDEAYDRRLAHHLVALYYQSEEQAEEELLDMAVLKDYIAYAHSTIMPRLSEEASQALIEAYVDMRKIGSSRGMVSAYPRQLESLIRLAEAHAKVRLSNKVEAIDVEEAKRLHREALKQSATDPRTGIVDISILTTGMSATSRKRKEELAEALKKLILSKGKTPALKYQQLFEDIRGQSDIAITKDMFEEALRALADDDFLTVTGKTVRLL
Further: in the data inactive means no Kd found up to 30 µM.

Sequence of Protein-tyrosine kinase 6 (Q13882 whole entry): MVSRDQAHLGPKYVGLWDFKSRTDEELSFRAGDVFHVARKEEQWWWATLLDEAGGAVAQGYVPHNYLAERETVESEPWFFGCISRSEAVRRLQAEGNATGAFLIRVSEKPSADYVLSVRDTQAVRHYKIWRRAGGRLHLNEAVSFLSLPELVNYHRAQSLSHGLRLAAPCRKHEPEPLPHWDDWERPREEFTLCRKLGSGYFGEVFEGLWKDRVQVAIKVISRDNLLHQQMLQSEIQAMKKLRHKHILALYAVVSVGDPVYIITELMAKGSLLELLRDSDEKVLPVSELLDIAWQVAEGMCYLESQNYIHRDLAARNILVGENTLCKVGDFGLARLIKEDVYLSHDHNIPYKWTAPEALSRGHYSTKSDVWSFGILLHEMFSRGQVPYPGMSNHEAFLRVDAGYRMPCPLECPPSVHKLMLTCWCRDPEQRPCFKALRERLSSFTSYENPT
Sequence of Cyclin-dependent kinase 7 (P50613 whole entry): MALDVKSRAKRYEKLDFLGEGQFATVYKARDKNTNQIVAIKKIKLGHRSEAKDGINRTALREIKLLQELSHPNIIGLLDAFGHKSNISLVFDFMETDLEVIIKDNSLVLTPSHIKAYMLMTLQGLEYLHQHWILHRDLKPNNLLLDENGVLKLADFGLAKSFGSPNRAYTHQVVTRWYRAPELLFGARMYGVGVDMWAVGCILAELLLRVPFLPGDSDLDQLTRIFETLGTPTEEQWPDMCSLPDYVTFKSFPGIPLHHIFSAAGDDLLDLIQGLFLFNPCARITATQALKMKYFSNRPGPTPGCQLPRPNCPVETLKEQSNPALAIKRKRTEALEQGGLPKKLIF
Sequence of Mitogen-activated protein kinase 8 (P45983 whole entry): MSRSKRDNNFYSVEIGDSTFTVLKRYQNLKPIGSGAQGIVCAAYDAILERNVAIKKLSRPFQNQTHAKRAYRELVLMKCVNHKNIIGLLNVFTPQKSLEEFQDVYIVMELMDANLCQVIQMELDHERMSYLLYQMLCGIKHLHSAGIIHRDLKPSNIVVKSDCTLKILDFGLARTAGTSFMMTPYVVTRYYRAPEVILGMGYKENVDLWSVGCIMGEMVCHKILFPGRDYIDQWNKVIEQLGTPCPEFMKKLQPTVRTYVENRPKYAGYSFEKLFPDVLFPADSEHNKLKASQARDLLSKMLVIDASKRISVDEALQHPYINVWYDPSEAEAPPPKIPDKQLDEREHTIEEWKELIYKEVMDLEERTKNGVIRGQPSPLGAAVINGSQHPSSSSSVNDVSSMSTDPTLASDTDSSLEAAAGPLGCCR

Row | SMILES | Kd [1] | Kd [2] | Kd [3] | Kd [4] | Kd [5] | Kd [6] | Kd [7] | Kd [8] | Kd [9] | Kd [10] | Kd [11] | Kd [12]
1 | COc1ccc(S(=O)(=O)N(C(C)=O)c2ccccc2/C=C/c2cc[n+]([O-])cc2)cc1 [HMN-214] | > 30 µM (inactive) | > 30 µM (inactive) | > 30 µM (inactive) | > 30 µM (inactive) | > 30 µM (inactive) | > 30 µM (inactive) | > 30 µM (inactive) | > 30 µM (inactive) | > 30 µM (inactive) | > 30 µM (inactive) | > 30 µM (inactive) | 
2 | Cc1[nH]c(/C=C2\C(=O)Nc3ccccc32)c(C)c1CCC(=O)O [ORANTINIB] |  |  | > 30 µM (inactive) |  |  | > 30 µM (inactive) | > 30 µM (inactive) | > 30 µM (inactive) | > 30 µM (inactive) | > 30 µM (inactive) | > 30 µM (inactive) | > 30 µM (inactive)
3 | NC(=O)c1c(OCc2c(F)cc(Br)cc2F)nsc1NC(=O)NCCCCN1CCCC1 [OSI-632] |  |  | > 30 µM (inactive) |  |  | > 30 µM (inactive) | > 30 µM (inactive) | 0.067 µM (active) | > 30 µM (inactive) | > 30 µM (inactive) | > 30 µM (inactive) | > 30 µM (inactive)
4 | CNC(=O)c1cc(Oc2ccc(NC(=O)Nc3cc(C(C)(C)C)nn3-c3ccc4ncccc4c3)c(F)c2)ccn1 [REBASTINIB] | > 30 µM (inactive) |  | > 30 µM (inactive) |  | 0.98 µM (active) | > 30 µM (inactive) | > 30 µM (inactive) | 0.272 µM (active) | > 30 µM (inactive) | > 30 µM (inactive) | > 30 µM (inactive) | 
5 | N#CC[C@H](C1CCCC1)n1cc(-c2ncnc3[nH]ccc23)cn1 [RUXOLITINIB] |  |  | > 30 µM (inactive) |  |  | > 30 µM (inactive) | 16.5 µM (active) |  | > 30 µM (inactive) | > 30 µM (inactive) | > 30 µM (inactive) | > 30 µM (inactive)
6 | CN1CCN(CCOc2cc(OC3CCOCC3)c3c(Nc4c(Cl)ccc5c4OCO5)ncnc3c2)CC1 [SARACATINIB] | > 30 µM (inactive) | > 30 µM (inactive) | > 30 µM (inactive) | 0.566 µM | > 30 µM (inactive) | > 30 µM (inactive) | > 30 µM (inactive) | 4.4 µM (active) | > 30 µM (inactive) | > 30 µM (inactive) |  | > 30 µM (inactive)
7 | CCS(=O)(=O)c1cccc(-c2cc(C(=O)NC3CCN(C)CC3)c(C)c3[nH]c4ncc(C)cc4c23)c1 [TAK-901] | 0.205 µM (active) | > 30 µM (inactive) | > 30 µM (inactive) | 0.18 µM (active) | > 30 µM (inactive) | > 30 µM (inactive) | 1.61 µM (active) | 13.8 µM (active) | > 30 µM (inactive) | > 30 µM (inactive) |  | > 30 µM (inactive)
8 | CO[C@H]1C[C@@H]2CC[C@@H](C)[C@@](O)(O2)C(=O)C(=O)N2CCCC[C@H]2C(=O)O[C@H]([C@H](C)C[C@@H]2CC[C@@H](OC(=O)C(C)(CO)CO)[C@H](OC)C2)CC(=O)[C@H](C)/C=C(\C)[C@@H](O)[C@@H](OC)C(=O)[C@H](C)C[C@H](C)/C=C/C=C/C=C/1C [TEMSIROLIMUS] | > 30 µM (inactive) | > 30 µM (inactive) | > 30 µM (inactive) | > 30 µM (inactive) | > 30 µM (inactive) | > 30 µM (inactive) | > 30 µM (inactive) | > 30 µM (inactive) |  | > 30 µM (inactive) | > 30 µM (inactive) | > 30 µM (inactive)
